# Laboratory results reported in PMC11748689, “Pharmacological and structural understanding of the Trypanosoma cruzi proteasome provides key insights for developing site-specific inhibitors” (The Journal of Biological Chemistry, 2024).
# Non-standard residues stand in square brackets, D forms with d. Residues, ends and D or L forms follow the SMILES beside them. *: point of attachment. Nva = CCC[C@H](N)C(=O)O; Cbz = O=C(OCc1ccccc1)*
# Key:
# Format in all cases: biochemical
# [1] = target: recombinant β4^R mutant T. cruzi proteasome (caspase-like activity) (Trypanosoma cruzi, UniProt V5BHX1); experiment: Caspase-like activity assay (Proteasome-Glo), recombinant β4^R mutant T. cruzi proteasome
# Experimental: (§1) Point mutations were created in individual subunits using overlapping PCR from the original templates using Polh and Tn7L primers outside the genes and suitable internal primers to introduce selected mutations. For Δβ1Δβ2, β1 Thr 55, and β2 Thr 67 were both mutated to Ala, the β4^R mutant was produced by mutating Phe 24 and Ile 29 to Leu and Met respectively in β4 subunit.
# (§2) Chymotrypsin-, trypsin-, and caspase-like activity assays were performed using a commercially available Proteasome-Glo 3-substrate system assay kit (catalog number G8532) (Promega Corporation) according to the manufacturers protocols and as previously described ([24]).
# (§3) Prior to running assays, Proteasome-Glo buffer was used to reconstitute the luciferin detection reagent (containing a recombinant thermostable luciferase enzyme). The resuspended luciferin detection reagent was then mixed with Proteasome-Glo chymotrypsin-, trypsin- or caspase-like substrates (either 40 μM suc-Leu-Leu-Val-Tyr-aminoluciferin, 30 μM Z-Leu-Arg-Arg-aminoluciferin (Z is benzyloxycarbonyl) or 40 μM Z-Nle-Pro-Nle-Asp-aminoluciferin respectively (these concentrations represent 2x final assay concentrations)). These substrate mixtures were allowed to incubate at room temperature for 60 min prior to use to allow the removal of any contaminating free aminoluciferin.
# (§4) Proteasome assays were carried out using 384-well, white, low-volume plates (catalog number 784904) (Greiner Bio-One) at room temperature (∼23 °C) in 8 μl reaction volumes. When activity checks were to be run in the presence or absence of a fixed concentration of proteasome inhibitor, 80 nL of the inhibitor (at a concentration 100x the required final assay concentration), or 80 nL dimethylsulfoxide (DMSO), were dispensed into assay plates using an Echo 550 acoustic dispenser (Labcyte).
# (§5) A 1 in 2 dilution series of the various T. cruzi proteasome samples (native, recombinant WT, β4^R mutant, and Δβ1Δβ2 mutant) were produced in assay buffer (50 mM Tris–HCl, pH 7.5, 10 mM sucrose, 5 mM MgCl2, 1 mM DTT, 2 mM ATP, 150 mM NaCl, 1 mM EDTA, and 0.05 mg/ml bovine serum albumin). Subsequently, 4 μl of the various concentrations of diluted proteasome were added to assay plates using an electronic multichannel pipette (Integra Biosciences Ltd). When kinetic read activity checks were performed (Fig. 2), proteasome final assay concentrations used were 115 μg/ml, 115 μg/ml, and 230 μg/ml native proteasome (in the chymotrypsin, trypsin, and caspase assays, respectively), and 4.1 μg/ml, 3.4 μg/ml, or 1.4 μg/ml recombinant WT proteasome (in the chymotrypsin, trypsin, and caspase assays, respectively). When activity checks were to be run in the presence or absence of a proteasome inhibitor plates containing inhibitor or DMSO control were incubated with the relevant proteasome sample for 60 min at room temperature (this step was not included in activity check experiments where compounds were not used).
# (§6) Following the 60 min incubation of proteasome and compound (if required), assays were initiated with the addition of 4 μl of substrate mix (containing substrate and the luciferin detection reagent) using an electronic multichannel pipette. Final assay concentrations of substrates used were either 20 μM Suc-Leu-Leu-Val-Tyr-aminoluciferin, 15 μM Z-Leu-Arg-Arg-aminoluciferin, or 20 μM Z-Nle-Pro-Nle-Asp-aminoluciferin for chymotrypsin-, trypsin- or caspase-like activity respectively.
# (§7) Luminescence was read either kinetically or as an endpoint read using an EnVision 2102 Multilabel Reader (PerkinElmer, Inc) with 0.2 s per well reading time. When kinetic assays were run, luminescence was read every 5 min for 90 min. Endpoint assays were run for 60 min before luminescence was read. All data processing and linear fit analyses were performed using Microsoft Excel for Microsoft 365 software (Redmond, Washington; https://www.microsoft.com/).
# [2] = target: recombinant WT T. cruzi proteasome (chymotrypsin-like activity, β5) (Trypanosoma cruzi, UniProt V5BU39+V5C017); experiment: biochemical; conditions: for maximum % inhibition plateau, Chymotrypsin Assay, Wild-type: mean ± SD, N = 3 (N = 2 for DDD02091966), (a) mid-point plateau from biphasic curve fits
# Experimental: as §2, §3, §4, §5, §6, §7
# (§8) When proteasome inhibitors were to be screened in the chymotrypsin, trypsin, and caspase assays, test compounds were dispensed into assay wells using an ECHO 550 acoustic dispenser (Labcyte) (final DMSO concentration 1%). Compounds were tested in either a 10-point concentration series (30 μM top final assay concentration, 1 in 3 dilution series) or a 12-point concentration series (30 μM top final assay concentration, 1 in 2.5 dilution series).
# [3] = target: recombinant β4^R mutant T. cruzi proteasome (trypsin-like activity) (Trypanosoma cruzi, UniProt V5BCU3); conditions: mean ± SD, N = 3
# Experimental: as §1, §2, §3, §4, §5, §6, §7
# [4] = target: recombinant β4^R mutant T. cruzi proteasome (chymotrypsin-like activity) (Trypanosoma cruzi, UniProt V5BU39+V5C017, F24L/I29M); experiment: biochemical
# Experimental: as §1, §2, §3, §4, §5, §6, §7
# [5] = target: recombinant Δβ1Δβ2 mutant T. cruzi proteasome (chymotrypsin-like activity) (Trypanosoma cruzi, UniProt V5BU39+V5C017); experiment: biochemical
# Experimental: as §1, §2, §3, §4, §5, §6, §7
# [6] = target: native T. cruzi proteasome (caspase-like activity, β1) (Trypanosoma cruzi, UniProt V5BHX1); experiment: Caspase-like activity assay (Proteasome-Glo), native T. cruzi proteasome; conditions: mean ± SD, N = 3; for IC50: read-out: pIC50, Caspase Assay, Native (converted)
# Experimental: as §2, §3, §8
# (§9) Proteasome assays were then performed as described above using Promega Proteasome-Glo 3-substrate system assay kit. […] Diluted proteasome (4 μl) was added to assay plates using an electronic multichannel pipette (Integra Biosciences Ltd) and the proteasome incubated with compound for 60 min at room temperature.
# (§10) Following the 60 min incubation of proteasome and compounds, assays were initiated with the addition of 4 μl of a substrate mix (containing substrate and the luciferin detection reagent) using an electronic multichannel pipette. Final assay concentrations of substrates used were either 20 μM Suc-Leu-Leu-Val-Tyr-aminoluciferin, 15 μM Z-Leu-Arg-Arg-aminoluciferin, or 20 μM Z-Nle-Pro-Nle-Asp-aminoluciferin for chymotrypsin-, trypsin-, or caspase-like activity, respectively. Following a further 60 min assay incubation, luminescence was read using an EnVision 2102 Multilabel Reader (PerkinElmer, Inc) with 0.2 s per well reading time.
# (§11) All data processing was performed using Microsoft Excel for Microsoft 365 software.
# (§12) Nonlinear dose-response curve fitting was carried out using the Microsoft Excel add-in, XLfit (IDBS). Percentage inhibition data were either fitted to a standard 4-parameter logistic fit model (XLfit model 205; Equation 2) or a biphasic model (either XLfit model 300; Equation 3 or a custom biphasic model; Equation 4 (used in cases where the top and/or bottom parameters deviated from 100%/0% inhibition)).(2) y=A+(B−A)/1+(C/x)^D Where A = % inhibition at bottom, B = % inhibition at top, C = IC50, D = slope, x = inhibitor concentration and y = % inhibition.(3) y=(A/(1+10^(C−log(x))∗B))+((100−A)/(1+10^(D−log(x))∗B)) With A = % inhibition at midplateau, B = slope, C = log(IC50^A), D = log(IC50^B)).
# (§13) All IC50 data generated were converted to pIC50 using Equation 5.
# [7] = target: native T. cruzi proteasome (trypsin-like activity, β2) (Trypanosoma cruzi, UniProt V5BCU3); experiment: Trypsin-like activity assay (Proteasome-Glo), native T. cruzi proteasome; conditions: mean ± SD, N = 3; for IC50: read-out: pIC50, Trypsin Assay, Native (converted)
# Experimental: as §2, §3, §8, §9, §10, §11, §12, §13
# [8] = target: recombinant WT T. cruzi proteasome (caspase-like activity, β1) (Trypanosoma cruzi, UniProt V5BHX1); experiment: Caspase-like activity assay (Proteasome-Glo), recombinant wild-type T. cruzi proteasome
# Experimental: as §2, §3, §8, §9, §10, §11, §12, §13
# [9] = target: native T. cruzi proteasome (chymotrypsin-like activity, β5) (Trypanosoma cruzi, UniProt V5BU39+V5C017); experiment: Chymotrypsin-like activity assay (Proteasome-Glo), native T. cruzi proteasome
# Experimental: as §2, §3, §8, §9, §10, §11, §12, §13
# [10] = target: recombinant WT T. cruzi proteasome (trypsin-like activity, β2) (Trypanosoma cruzi, UniProt V5BCU3); experiment: biochemical; conditions: mean ± SD, N = 3; for IC50: read-out: pIC50, Trypsin Assay, Wild-type (converted)
# Experimental: as §2, §3, §8, §9, §10, §11, §12, §13
Structure (SMILES),IC50 [1],IC50 [2],"maximum % inhibition plateau, Chymotrypsin Assay, Wild-type [2]","pIC50, Trypsin Assay, β4^R mutant [3]",IC50 [4],IC50 [5],IC50 [6],IC50 [7],IC50 [8],IC50 [9],IC50 [10],also measured
"CC(C)C[C@H](NC(=O)CNC(=O)c1cc(Cl)ccc1Cl)B(O)O [Ixazomib, reference compound]",46.8 nM,19.5 nM,52.7 ± 21.9^ a %,5.53 ± 0.03,13.2 nM,22.9 nM,44.7 nM,8710 nM,55 nM,35.5 nM,6920 nM,–
"CCC[C@@H](C=O)NC(=O)[C@H](CC(C)C)NC(=O)[C@H](CC(C)C)NC(=O)OCc1ccccc1 [MG115, reference compound] (Cbz-Leu-Leu-[Nva]-aldehyde)",–,–,93.3 ± 2.9%,5.24 ± 0.05,–,–,–,–,–,–,–,"pIC50, Caspase Assay, β4^R mutant ([1]; mean ± SD, N = 3): 5.03 ± 0.04; pIC50, Chymotrypsin Assay, Wild-type [2]: 6.07 ± 0.13; pIC50, Chymotrypsin Assay, β4^R mutant ([4]; mean ± SD, N = 3, biphasic curves (a): pIC50 of most potent curve): 6.24 ± 0.05; maximum % inhibition plateau, Chymotrypsin Assay, Δβ1Δβ2 mutant ([5]; mean ± SD, N = 3): 99.4 ± 1.0%; pIC50, Chymotrypsin Assay, Δβ1Δβ2 mutant ([5]; mean ± SD, N = 3): 6.38 ± 0.16; pIC50, Caspase Assay, Native [6]: 4.79 ± 0.11; pIC50, Trypsin Assay, Native [7]: 4.89 ± 0.16; pIC50, Caspase Assay, Wild-type ([8]; mean ± SD, N = 3): 4.77 ± 0.07; pIC50, Chymotrypsin Assay, Native ([9]; mean ± SD, N = 3, biphasic curves (a): pIC50 of most potent curve, 60 min preincubation): 6.04 ± 0.08; pIC50, Trypsin Assay, Wild-type [10]: 4.97 ± 0.09"
"CC(C)C[C@@H](C=O)NC(=O)[C@H](CC(C)C)NC(=O)[C@H](CC(C)C)NC(=O)OCc1ccccc1 [MG132, carbobenzoxy-l-leucyl-l-leucyl-l-leucinal, reference compound] (Cbz-Leu-Leu-Leu-aldehyde)",3090 nM,115 nM,66.1 ± 6.6^ a %,5.21 ± 0.11,60.3 nM,91.2 nM,3980 nM,8910 nM,3310 nM,120 nM,8320 nM,–
COC[C@H](NC(=O)c1cnc(C)s1)C(=O)N[C@@H](COC)C(=O)N[C@@H](Cc1ccccc1)C(=O)[C@@]1(C)CO1 [Oprozomib],> 30200 nM,–,–,<4.52,–,–,> 30200 nM,> 30200 nM,> 30200 nM,–,> 30200 nM,–
